Results on four molecules are retold here after patent publication US20040162235A1, “Delivery of siRNA to cells using polyampholytes” (priority 2003, published 2004).

The nature of data set [1]: Red blood cell (RBC) hemolysis assay. Type of data set: cell-based. The conditions noted are these: 37° C., read-out: Percent Hemolysis; for hemolysis at 30 min: red blood cells (washed, harvested from whole blood). The method, then: C. […] RBCs were harvested by centrifuging whole blood for 4 min. They were washed three times with 100 mM dibasic sodium phosphate at the desired pH, and resuspended in the same buffer to yield the initial volume. They were diluted 10 times in the same buffer, and 200 μL of this suspension was used for each tube. This yields […] RBCs per tube. Each tube contained 800 μL of buffer, 200 μL of the RBC suspension, and the peptide with or without polymer. Each sample was then repeated to verify reproducibility. The tubes were incubated for 30 minutes in a 37° C. water bath. They were spun for 5 min at full speed in the microcentrifuge. Lysis was determined by measuring the absorbance of the supernatant at 541 nm, reflecting the amount of hemoglobin that had been released into the supernatant. Percent hemolysis was calculated assuming 100% lysis to be measured by the hemoglobin released by the red blood cells in water; controls of RBCs in buffer with no peptide were also run.

Data set [2] in a line: Lability at pH 5: conversion of maleamic acid to amine and anhydride, followed by TNBS. The conditions noted are these: sodium acetate buffer pH 5. Type of data set: physicochemical. The method, then:
A. DM-poly-L-lysine: Dimethyl maleamic modified poly-L-lysine (10 mg/mL) was incubated in 10 mM sodium acetate buffer pH 5. At various times, aliquots (10 μg) were removed and added to 0.5 mL of 100 mM borax solution containing 0.4 mM trinitrobenzenesulfonate (TNBS). After 30 min, the absorbance of the solution at 420 nm was measured. To determine the concentration of amines at each time point, the extinction coefficient was determined for the product of TNBS and poly-L-lysine. Using this extinction coefficient we were able to calculate the amount of amines and maleamic groups at each time point. A plot of In (At/A0) as a function of time was a straight line whose slope was the negative of the rate constant for the conversion of maleamic acid to amine and anhydride, where At is the concentration of maleamic acid at a time t and A0 is the initial concentration of maleamic acid. For two separate experiments we calculated rate constants of […] which correspond to half lives of roughly 10 and 4 minutes, respectively.
B. DM-KL3: Dimethyl maleamic modified KL3 (0.1 mg/mL) was incubated in 40 mM sodium acetate buffer pH 5 and 1 mM cetyltrimetylammonium bromide. At various times, 10 μg aliquots were removed and added to 0.05 mL 1 M borax solution containing 4 mM TNBS. After 30 min, the absorbance of the solution at 420 nm was measured. […]

By half-life is commonly meant the time needed for the level to fall by half in the phase considered.

Read-outs that look alike come from different tables or passages of the source. *1 amine or outer side, *2 acyl side, *3 side chain or, on linkers, in order; H or OH if unused. Where a SMILES comes first, the peptide text is derived from it. Where no end group is shown, it is not given here. The star is where a group is joined. Suc = O=C(CCC(=O)[*:2])[*:1]; X1 = C/C(C(=O)O)=C(\C)C(=O)*

On to `CC(C)C[C@H](NC(=O)[C@H](CC(C)C)NC(=O)[C@H](CCCCNC(=O)CCC(=O)O)NC(=O)[C@H](CC(C)C)NC(=O)[C@H](CC(C)C)NC(=O)[C@H](CC(C)C)NC(=O)[C@H](CCCCNC(=O)CCC(=O)O)NC(=O)[C@H](CC(C)C)NC(=O)[C@H](CC(C)C)NC(=O)[C@H](CCCCNC(=O)CCC(=O)O)NC(=O)[C@H](CC(C)C)NC(=O)[C@H](Cc1c[nH]c2ccccc12)NC(=O)[C@H](CC(C)C)NC(=O)[C@H](CCCCNC(=O)CCC(=O)O)NC(=O)[C@H](CC(C)C)NC(=O)[C@H](CC(C)C)NC(=O)[C@H](CC(C)C)NC(=O)[C@H](CCCCNC(=O)CCC(=O)O)NC(=O)[C@H](CC(C)C)NC(=O)[C@H](CC(C)C)NC(=O)[C@H](CCCCNC(=O)CCC(=O)O)NC(=O)CCC(=O)O)C(=O)O` [Succinyl-KL3] (Suc-K(Suc)LLK(Suc)LLLK(Suc)LWLK(Suc)LLK(Suc)LLLK(Suc)LL-OH; N-terminus and C-terminus assumed), for which the hemolysis was determined as 2% in data set [1] (pH 5.4, 30 minutes) and 1.3% in data set [1] (pH 7.5, 30 minutes).

Consider KLLKLLLKLWLKLLKLLLKLL [KL3], for which the hemolysis in data set [1] (pH 5.4, 30 minutes) is 83%; in data set [1] (pH 7.5, 30 minutes) it was 62%.

Take `CC[C@H](C)[C@H](NC(=O)CN)C(=O)NCC(=O)N[C@@H](C)C(=O)N[C@H](C(=O)N[C@@H](CC(C)C)C(=O)N[C@@H](CCCCN)C(=O)N[C@H](C(=O)N[C@@H](CC(C)C)C(=O)N[C@H](C(=O)N[C@H](C(=O)NCC(=O)N[C@@H](CC(C)C)C(=O)N1CCC[C@H]1C(=O)N[C@@H](C)C(=O)N[C@@H](CC(C)C)C(=O)N[C@H](C(=O)N[C@@H](CO)C(=O)N[C@@H](Cc1c[nH]c2ccccc12)C(=O)N[C@H](C(=O)N[C@@H](CCCCN)C(=O)N[C@@H](CCCNC(=N)N)C(=O)N[C@@H](CCCCN)C(=O)N[C@@H](CCCNC(=N)N)C(=O)N[C@@H](CCC(N)=O)C(=O)N[C@@H](CCC(N)=O)C(N)=O)[C@@H](C)CC)[C@@H](C)CC)[C@@H](C)O)[C@@H](C)O)C(C)C)C(C)C` [Melittin, reference compound]: the hemolysis at 30 min in data set [1] (pH 5.4, 30 minutes) came to 85%; in data set [1] (pH 7.5, 30 minutes) it was 92%.

For `C/C(C(=O)O)=C(\C)C(=O)NCCCC[C@H](NC(=O)/C(C)=C(/C)C(=O)O)C(=O)N[C@@H](CC(C)C)C(=O)N[C@@H](CC(C)C)C(=O)N[C@@H](CCCCNC(=O)/C(C)=C(/C)C(=O)O)C(=O)N[C@@H](CC(C)C)C(=O)N[C@@H](CC(C)C)C(=O)N[C@@H](CC(C)C)C(=O)N[C@@H](CCCCNC(=O)/C(C)=C(/C)C(=O)O)C(=O)N[C@@H](CC(C)C)C(=O)N[C@@H](Cc1c[nH]c2ccccc12)C(=O)N[C@@H](CC(C)C)C(=O)N[C@@H](CCCCNC(=O)/C(C)=C(/C)C(=O)O)C(=O)N[C@@H](CC(C)C)C(=O)N[C@@H](CC(C)C)C(=O)N[C@@H](CCCCNC(=O)/C(C)=C(/C)C(=O)O)C(=O)N[C@@H](CC(C)C)C(=O)N[C@@H](CC(C)C)C(=O)N[C@@H](CC(C)C)C(=O)N[C@@H](CCCCNC(=O)/C(C)=C(/C)C(=O)O)C(=O)N[C@@H](CC(C)C)C(=O)N[C@@H](CC(C)C)C(=O)O` [DM-KL3] (X1-K(X1)LLK(X1)LLLK(X1)LWLK(X1)LLK(X1)LLLK(X1)LL-OH; N-terminus and C-terminus assumed), in data set [1] (pH 5.4, 30 minutes), the hemolysis came out at 37%. In addition, in data set [1] (pH 7.5, 30 minutes), the hemolysis was 4.3%. For the same molecule, in data set [2], the half-life was approximately 8 min; the “rate constant for the conversion of maleamic acid to amine and anhydride” value amounted to 0.087 min⁻¹.
